One test relates to HDAC in cells. The experiment in a line: Cellular HDAC inhibition (cellular histone hyperacetylation / cytotoxicity assays; Table 1 only says Cellular IC50). Type of test: cell-based. The following applies: transformed cell lines (e.g. HeLa, A549, MCF-7); cell line not given. The protocol: 2) Cellular Histone Hyperacetylation Assays:
These two secondary assays evaluate a compound's ability to inhibit HDAC in cells by measuring cellular histone acetylation levels. The cytoblot facilitates quantitative EC50 information for cellular HDAC inhibition. Transformed cell lines (e.g. HeLa, A549, MCF-7) are cultured under standard media and culture conditions prior to plating.
Cells (approx. 2,500/well) are allowed to adhere 10-24 hours to wells of a 384-well Greiner PS assay plate in media containing 1-5% serum. Cells are treated with appropriate compound and specific concentrations for 0 to 24 hours. Cells are washed once with PBS (60 μL) and then fixed (95% ethanol, 5% acetic acid or 2% PFA) for 1 minute at RT (30 μL). Cells are blocked with 1% BSA for 1 hour and washed and stained with antibody (e.g. anti-Acetylated Histone H3, Upstate Biotechnology), followed by washing and incubation with an appropriate secondary antibody conjugated to HRP or fluorophore. For luminescence assays, signal is generated using Luminol substrate (Santa Cruz Biotechnology) and detected using an Aquest plate reader (Molecular Devices).
3) Differential Cytotoxicity Assay:
HDAC inhibitors display differential cytotoxicity toward certain transformed cell lines. Cells are cultured according to standard ATCC recommended conditions that are appropriate to each cell type. Compounds were tested for their ability to kill different cell types (normal and transformed) using the ATPlite luminescence ATP detection assay system (Perkin Elmer). Assays are run in either 384-well or 1536-well Greiner PS plates. Cells (30 μL or 5 μL, respectively) are dispensed using either multichannel pipette for 384-well plates, or proprietary Kalypsys bulk liquid dispenser for 1536-well plates. Compounds added using proprietary pin-transfer device (500 nL or 5 nL) and incubated 5 to 30 hours prior to analysis. Luminescence is measured using Aquest plate reader (Molecular Devices).

In another test the test system is HDAC. Description: In vitro HDAC-inhibition assay (Fluor de Lys fluorescent activity assay). Type of test: biochemical. The note with it: HDAC enzyme source (e.g. nuclear extract or immunopurified HDAC complexes), Fluor de Lys substrate, 30 minutes RT. The protocol:
1) In vitro HDAC-inhibition Assay:
This assay measures a compound's ability to inhibit acetyl-lysine deacetylation in vitro and was used as both a primary screening method as well as for IC50 determinations of confirmed inhibitors. The assay is performed in vitro using an HDAC enzyme source (e.g. partially purified nuclear extract or immunopurified HDAC complexes) and a proprietary fluorescent substrate/developer system (HDAC Quantizyme Fluor de Lys Fluorescent Activity Assay, BIOMOL). The assay is run in 1,536-well Greiner white-bottom plates using the following volumes and order of addition: • Step 1: Enzyme (2.5 μL) source added to plate (from refrigerated container) • Step 2: Compounds (50 nL) added with pin transfer device • Step 3: Fluor de Lys (2.5 μL) substrate added, incubate at RT, 30 minutes • Step 4: Developer (5 μL) solution is added (containing TSA), to stop reaction • Step 5: Plate Reader—data collection
The deacetylated fluorophore is excited with 360 nm light and the emitted light (460 nm) is detected on an automated fluorometric plate reader (Aquest, Molecular Devices).

For orientation: IC50 means the midpoint of a concentration-inhibition curve. Lower therefore signals higher potency. For the compound `CC(=O)SCC(=O)c1ccc(NS(=O)(=O)c2ccc(Oc3ccccc3C)cc2)cc1` [Example 01, Thioacetic acid S-{2-oxo-2-[4-(4-o-tolyloxy-benzenesulfonylamino)-phenyl]-ethyl} ester], the IC50 in the test with HDAC in cells and in the test with HDAC was at most 1 µM in each case.
As for `CC(=O)SCC(=O)c1ccc(NS(=O)(=O)c2ccc(OCCCc3ccccn3)cc2)cc1` [Example 17, Thioacetic acid S-(2-oxo-2-{4-[4-(3-pyridin-2-yl-propoxy)-benzenesulfonylamino]-phenyl}-ethyl) ester], the IC50 in the test with HDAC in cells and with HDAC was at most 1 µM in each case.
In the case of `CC(=O)SCC(=O)c1ccc(NS(=O)(=O)c2ccc(OCCN3CCCCC3)cc2)nc1` [Example 24, Thioacetic acid S-(2-oxo-2-{6-[4-(2-piperidin-1-yl-ethoxy)-benzenesulfonylamino]-pyridin-3-yl}-ethyl) ester], the half-inhibitory concentration (IC50) in the test with HDAC in cells and with HDAC was at most 1 µM each time.
Turning to `CC(=O)SCC(=O)c1ccc(NS(=O)(=O)c2ccc(CN3CCOCC3)cc2)cc1` [Example 07, Thioacetic acid S-{2-[4-(4-morpholin-4-ylmethyl-benzenesulfonylamino)-phenyl]-2-oxo-ethyl} ester], the IC50 with HDAC in cells and in the test with HDAC was at most 1 µM each time.
Regarding `CC(=O)SCC(=O)c1ccc(NS(=O)(=O)c2ccc(OCCCN3CCCCC3)cc2)cc1` [Example 22, Thioacetic acid S-(2-oxo-2-{4-[4-(3-piperidin-1-yl-propoxy)-benzenesulfonylamino]-phenyl}-ethyl) ester], the IC50 in the test on HDAC in cells and with HDAC was at most 1 µM each time.
For the compound `CC(=O)SCC(=O)c1ccc(NS(=O)(=O)c2ccc(Oc3ccc(Cl)cc3)cc2)cc1` [Example 04, Thioacetic acid S-(2-{4-[4-(4-chloro-phenoxy)-benzenesulfonylamino]-phenyl}-2-oxo-ethyl) ester], the IC50 with HDAC in cells and in the test on HDAC was at most 1 µM throughout.
In the case of `CC(=O)SCC(=O)c1ccc(NS(=O)(=O)c2ccc(OC(C)CN3CCCCC3)cc2)nc1` (stereo not drawn) [Example 32, Thioacetic acid S-(2-{6-[4-(1-methyl-2-piperidin-1-yl-ethoxy)-benzenesulfonylamino]-pyridin-3-yl}-2-oxo-ethyl) ester], the IC50 with HDAC in cells and in the test with HDAC was at most 1 µM in each case.
Regarding `CC(=O)SCC(=O)c1ccc(NS(=O)(=O)c2ccc(OC3CCN(C)CC3)cc2)cc1` [Example 10, Thioacetic acid S-(2-{4-[4-(1-methyl-piperidin-4-yloxy)-benzenesulfonylamino]-phenyl}-2-oxo-ethyl) ester], the IC50 with HDAC in cells and in the test on HDAC was at most 1 µM in each case.
Consider `CC(=O)SCC(=O)c1ccc(NS(=O)(=O)c2ccc(NCc3ccccn3)cc2)cc1` [Example 08, Thioacetic acid S-[2-oxo-2-(4-{4-[(pyridin-2-ylmethyl)-amino]-benzenesulfonylamino}-phenyl)-ethyl] ester], for which the IC50 with HDAC in cells and in the test on HDAC was at most 1 µM throughout.
Regarding `CC(=O)SCC(=O)c1ccc(NS(=O)(=O)c2ccc(OCCCCc3ccccc3)cc2)nc1` [Example 14, Thioacetic acid S-(2-oxo-2-{6-[4-(4-phenyl-butoxy)-benzenesulfonylamino]-pyridin-3-yl}-ethyl) ester], the IC50 in the test with HDAC in cells and with HDAC was at most 1 µM throughout.
For the compound `CC(=O)SCC(=O)c1ccc(NS(=O)(=O)c2ccc(S(=O)(=O)N3CCOCC3)cc2)cc1` [Example 05, Thioacetic acid S-(2-{4-[4-(morpholine-4-sulfonyl)-benzenesulfonylamino]-phenyl}-2-oxo-ethyl) ester], the IC50 with HDAC in cells and in the test on HDAC was at most 1 µM each time.
As to `CC(=O)SCC(=O)c1ccc(NS(=O)(=O)c2ccc(Oc3ccccc3)cc2)cc1` [Example 03, Thioacetic acid S-{2-oxo-2-[4-(4-phenoxy-benzenesulfonylamino)-phenyl]-ethyl} ester], the IC50 with HDAC in cells and in the test with HDAC was at most 1 µM throughout.
As for `CC(=O)SCC(=O)c1ccc(NS(=O)(=O)c2ccc(OCCc3ccccn3)cc2)cc1` [Example 21, Thioacetic acid S-(2-oxo-2-{4-[4-(2-pyridin-2-yl-ethoxy)-benzenesulfonylamino]-phenyl}-ethyl) ester], the IC50 in the test with HDAC in cells and in the test on HDAC was at most 1 µM in each case.
Regarding `CC(=O)SCC(=O)c1ccc(NS(=O)(=O)c2ccc(OCCCc3ccccn3)cc2)nc1` [Example 28, Thioacetic acid S-(2-oxo-2-{6-[4-(3-pyridin-2-yl-propoxy)-benzenesulfonylamino]-pyridin-3-yl}-ethyl) ester], the IC50 with HDAC in cells and in the test on HDAC was at most 1 µM in each case.
`CC(=O)SCC(=O)c1ccc(NS(=O)(=O)c2ccc(OCCN3CCOCC3)cc2)cc1` [Example 20, Thioacetic acid S-(2-{4-[4-(2-morpholin-4-yl-ethoxy)-benzenesulfonylamino]-phenyl}-2-oxo-ethyl) ester]: the IC50 in the test on HDAC in cells and with HDAC was at most 1 µM in each case.
Turning to `CC(=O)SCC(=O)c1ccc(NS(=O)(=O)c2ccc(OCCN3CCCC3)cc2)nc1` [Example 26, Thioacetic acid S-(2-oxo-2-{6-[4-(2-pyrrolidin-1-yl-ethoxy)-benzenesulfonylamino]-pyridin-3-yl}-ethyl) ester], the IC50 in the test with HDAC in cells and with HDAC was at most 1 µM throughout.
As for `CC(=O)SCC(=O)c1ccc(NS(=O)(=O)c2ccc(OCCc3ccccn3)cc2)nc1` [Example 18, Thioacetic acid S-(2-oxo-2-{6-[4-(2-pyridin-2-yl-ethoxy)-benzenesulfonylamino]-pyridin-3-yl}-ethyl) ester], the IC50 in the test on HDAC in cells and with HDAC was at most 1 µM in each case.
For the compound `CC(=O)SCC(=O)c1ccc(NS(=O)(=O)c2ccc(OC3CCN(C)CC3)cc2)nc1` [Example 29, Thioacetic acid S-(2-{6-[4-(1-methyl-piperidin-4-yloxy)-benzenesulfonylamino]-pyridin-3-yl}-2-oxo-ethyl) ester], the IC50 in the test with HDAC in cells and with HDAC was at most 1 µM each time.
Consider `CC(=O)SCC(=O)c1ccc(NS(=O)(=O)c2ccc(OCCCN3CCCCC3)cc2)nc1` [Example 25, Thioacetic acid S-(2-oxo-2-{6-[4-(3-piperidin-1-yl-propoxy)-benzenesulfonylamino]-pyridin-3-yl}-ethyl) ester], for which the IC50 with HDAC in cells and in the test with HDAC was at most 1 µM in each case.
As to `CC(=O)SCC(=O)c1ccc(NS(=O)(=O)c2ccc(OCCN3CCCCC3)cc2)cc1` [Example 19, Thioacetic acid S-(2-oxo-2-{4-[4-(2-piperidin-1-yl-ethoxy)-benzenesulfonylamino]-phenyl}-ethyl) ester], the concentration for half-maximal inhibition (IC50) in the test with HDAC in cells and with HDAC was at most 1 µM in each case.
For the compound `CC(=O)SCC(=O)c1ccc(NS(=O)(=O)c2ccc(OCCCc3cccnc3)cc2)cc1` [Example 16, Thioacetic acid S-(2-oxo-2-{4-[4-(3-pyridin-3-yl-propoxy)-benzenesulfonylamino]-phenyl}-ethyl) ester], the values for the IC50 in the test with HDAC in cells and in the test on HDAC were above 1 µM and at most 1 µM, respectively.
On to `CC(=O)SCC(=O)c1ccc(NS(=O)(=O)c2ccc(OCc3ccccn3)cc2)nc1` [Example 23, Thioacetic acid S-(2-oxo-2-{6-[4-(pyridin-2-ylmethoxy)-benzenesulfonylamino]-pyridin-3-yl}-ethyl) ester], for which the IC50 in the test with HDAC in cells and in the test with HDAC was at most 1 µM throughout.
As to `CC(=O)SCC(=O)c1ccc(NS(=O)(=O)c2ccc(OCc3ccccn3)cc2)cc1` [Example 15, Thioacetic acid S-(2-oxo-2-{4-[4-(pyridin-2-ylmethoxy)-benzenesulfonylamino]-phenyl}-ethyl) ester], the IC50 in the test on HDAC in cells and in the test on HDAC was at most 1 µM in each case.
As for `CC(=O)SCC(=O)c1ccc(NS(=O)(=O)c2ccc(OCCCN3CCOCC3)cc2)cc1` [Example 12, Thioacetic acid S-(2-{4-[4-(3-morpholin-4-yl-propoxy)-benzenesulfonylamino]-phenyl}-2-oxo-ethyl) ester], the IC50 with HDAC in cells and with HDAC was at most 1 µM in each case.

For the origin of these results see patent US20070135431A1, “INHIBITORS OF HISTONE DEACETYLASE FOR THE TREATMENT OF DISEASE” (KALYPSYS, INC, priority 2005, published 2007).
